From publication PMC3226715 (Chemical research in toxicology, 2011)

Assays:
[1] = tested on: MDH; conditions: rat liver mitochondria in the presence of DCVC; cited from earlier work
[2] = tested on: GRd; conditions: rat renal proximal tubule cells treated with DCVC; cited from earlier work
[3] = tested on: rat kidney cytosol proteins; test: Binding of NB-DCVCS to kidney cytosolic proteins, anti-biotin immunoblot; design: species or system male Sprague Dawley rat; conditions: 6 µg/µL cytosol, 3 h, 37°C
[4] = Stability under acidic conditions; format: physicochemical; conditions: 0.2 M HCl/KCl buffer pH 2, several hours at 37°C (data not shown)
[5] = Half-life in the presence of GSH; format: physicochemical; conditions: 0.31 mM compound, 1.02 mM GSH (3:10 molar ratio), phosphate buffer pH 7.4, 37°C
[6] = Stability in isolated rat whole blood; format: in vitro ADME, male Sprague-Dawley rat; conditions: 50 µM, 37°C
[7] = molecular target: glutathione reductase (GRd) from baker's yeast (Saccharomyces cerevisiae, UniProt P41921); test: Covalent modification of the model enzyme GRd, anti-biotin immunoblot; format: binding; conditions: 10 µM NB-DCVCS, 3 h, 37°C, 0.5 mg/mL protein
glutathione reductase (GRd) from baker's yeast, sequence (P41921 whole entry): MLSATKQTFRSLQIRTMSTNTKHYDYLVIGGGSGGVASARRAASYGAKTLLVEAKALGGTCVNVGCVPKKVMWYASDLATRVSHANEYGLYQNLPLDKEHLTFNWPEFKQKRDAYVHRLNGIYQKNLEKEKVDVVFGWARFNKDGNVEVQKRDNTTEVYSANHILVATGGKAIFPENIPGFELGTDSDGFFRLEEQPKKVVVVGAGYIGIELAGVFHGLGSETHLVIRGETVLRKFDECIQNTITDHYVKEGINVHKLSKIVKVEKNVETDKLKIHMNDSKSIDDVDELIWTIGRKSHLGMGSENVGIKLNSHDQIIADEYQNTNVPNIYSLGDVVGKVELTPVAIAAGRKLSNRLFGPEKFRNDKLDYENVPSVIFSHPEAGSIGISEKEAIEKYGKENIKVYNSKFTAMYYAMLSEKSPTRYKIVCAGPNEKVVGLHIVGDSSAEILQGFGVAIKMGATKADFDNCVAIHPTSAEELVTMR

[8] = Stability in phosphate buffer pH 7.4; format: physicochemical
[9] = Stability in isolated rat plasma; format: in vitro ADME, male Sprague-Dawley rat; conditions: 50 µM, 37°C
[10] = molecular target: T1, porcine heart mitochondrial malate dehydrogenase (MDH) (Sus scrofa, UniProt P00346); test: Covalent modification of the model enzyme MDH, anti-biotin immunoblot; format: binding; conditions: 10 µM NB-DCVCS, 3 h, 37°C, 0.5 mg/mL protein
T1 sequence (P00346 25-338): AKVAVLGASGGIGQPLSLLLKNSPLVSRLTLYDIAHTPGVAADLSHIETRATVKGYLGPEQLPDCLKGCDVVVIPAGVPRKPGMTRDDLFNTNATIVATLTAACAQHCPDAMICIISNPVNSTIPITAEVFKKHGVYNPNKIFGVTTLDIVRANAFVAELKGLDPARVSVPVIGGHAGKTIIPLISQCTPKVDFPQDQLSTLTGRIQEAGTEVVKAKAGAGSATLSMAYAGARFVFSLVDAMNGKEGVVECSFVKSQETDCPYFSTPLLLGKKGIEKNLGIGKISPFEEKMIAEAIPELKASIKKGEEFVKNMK

| SMILES | MDH activity [1] | GRd activity [2] | immunoblot signal of modified kidney cytosol proteins ([3]; 312.5 nM to 5 µM NB-DCVCS) | NB-DCVCS concentration at which modified proteins were detected [3] | stability under acidic conditions [4] | half-life in the presence of GSH [5] | DCVCS formation from NB-DCVCS (amide bond cleavage) in whole blood [6] | half-life in whole blood [6] | detection in whole blood after 150 min ([6]; after 150 min) | modification of glutathione reductase (immunoblot) [7] | time stable in phosphate buffer ([8]; phosphate buffer, 37°C) | stability in phosphate buffer pH 7.4 ([8]; several hours at 37°C (data not shown)) | DCVCS formation from NB-DCVCS (amide bond cleavage) in plasma [9] | half-life in plasma [9] | detection in plasma after 150 min ([9]; after 150 min) | modification of malate dehydrogenase (immunoblot) [10] |
| --- | --- | --- | --- | --- | --- | --- | --- | --- | --- | --- | --- | --- | --- | --- | --- | --- |
| N[C@@H](CSC(Cl)=CCl)C(=O)O [DCVC] | inhibited | inhibited | – | – | – | – | – | – | – | – | – | – | – | – | – | – |
| O=C(CCCC[C@@H]1SC[C@@H]2NC(=O)N[C@@H]21)N[C@@H](C[S+]([O-])C(Cl)=CCl)C(=O)O (stereo partly shown) [NB-DCVCS] | – | – | concentration-dependent increases in signal and the number of bands | ≥ 625 nM | stable | 39.6 min | No DCVCS formation was observed | 68.5 min | not detectable | extensively modified | greater than 120 min | stable | No DCVCS formation was observed | 40 min | not detectable | extensively modified |
